We go through seven substances from patent US7241861B2, “High density lipoprotein-reactive peptides” (Japan Immunoresearch Laboratories Co., Ltd., priority 2001, dated 2007).

In one assay the test system is RAW264 cells. The experiment in a line: Cholesterol efflux test in RAW264 cells loaded with acetylated LDL. The class given is cell-based, mouse. The settings on record: foam with acetylated LDL; peptide 20, 2.0 or 0.2 μg/mL, 24 hours; supernatant cholesterol (FIG. 4). How it is done: The aforementioned peptides were examined with regard to cholesterol efflux effect from RAW264 cells (a model of atherosclerosis).
Specifically, RAW264 cells (mouse monocytic leukemia cell strain) were added to DMEM medium that had been supplemented with 10% FBS, to thereby prepare a specimen having a concentration of 4×10^5 cells/mL. An aliquot of the specimen (1 mL) was added to each well of a 12-well plate, followed by culture for two days in a CO2 incubator (37° C.). The medium in each well was removed, and the cells in the well were washed once with 1 mL of DMEM containing 0.2% BSA and 20 mM glutamine (hereinafter referred to as “DMEM”). Subsequently, a solution of acetylated LDL in DMEM (40 μg/mL, 1 mL) was added to each well, followed by culture for 24 hours in a CO2 incubator (37° C.), whereby acetylated LDL entered into the cells. The cells were washed twice with PBS supplemented with 0.2% BSA. Thereafter, a solution of dibutyl cAMP in DMEM (0.3 mM, 1 mL) was added to each well, followed by incubation for 2 hours in a CO2 incubator (37° C.).
The test peptide (20 μL) was added to each well so as to attain a final concentration of 20, 2.0, or 0.2 μg/mL, followed by culture for 24 hours in a CO2 incubator (37° C.).
After 24 hours, the supernatant of each well was collected in a microtube, and the microtube was centrifuged for five minutes at 10,000 rpm. The cholesterol level of the supernatant was measured by means of the autoanalyzer described above.
Each test peptide was dissolved in DMSO (5 mg/mL), and the thus-formed solution was diluted with DMEM so as to attain a concentration of 1 mg/mL. Subsequently, the resultant solution was diluted 10-fold or 100-fold with DMEM, to thereby prepare a test sample. Moreover, in order to prepare a control sample, only DMSO was diluted with DMEM so as to attain a final concentration of 0.4, 0.04, or 0.004%; and in order to prepare a positive control sample, delipid HDL was diluted with DMEM so as to attain a concentration of 2.5, 5.0, or 10 μg/mL.

The subject of another assay is HDL cholesterol. The experiment in a line: Reactivity with HDL: HDL sample reacted with peptide-bound affinity gel, analysis of unbound fraction. The class given is binding, Human. The settings on record: for reduction of total cholesterol level of HDL: Example 5, total cholesterol level of applied HDL sample 12.7 mg/dl. The procedure:
The peptide obtained in (1) above (B100FL, 0.1 mg) was added to affinity gel (25 μL) to which an anti-apo B-100 monoclonal antibody (JI-H) had been immobilized, whereby a B100FL-bound affinity gel was prepared. A control gel was prepared by treating gel with PBS (not containing B100FL) in a manner similar to the above.
Human plasma (1 mL) was added to affinity gel (2 mL) to which an anti-apo A-I monoclonal antibody had been immobilized, to thereby cause HDL to be specifically bound to the gel. The bound HDL was eluted with 3M sodium thiocyanate, and the buffer of the thus-obtained eluent was changed to PBS through use of a column for desalting, to thereby prepare an HDL sample.
The aforementioned anti-apo A-I monoclonal antibody immobilized affinity gel and anti-apo B-100 monoclonal antibody (JI-H) immobilized affinity gel were prepared in accordance with a conventional method (Japanese Patent Publication (kokoku) No. 7-104351).
The HDL sample (containing 20 μg of apo A-I) was reacted with the B100FL-bound affinity gel for 30 minutes at room temperature. Subsequently, the reaction mixture was left to stand for 15 minutes to thereby cause the gel to precipitate, to thereby remove the gel from the reaction mixture.
Total cholesterol level: Total cholesterol level was determined with a reagent for measuring cholesterol level (L-TCII, Kyowa Medex Co., Ltd.) by means of an autoanalyzer (TBA20R; Toshiba).
Lipoprotein analysis: Lipoprotein was analyzed through HPLC of a lipoprotein analysis system (Lipopropax XL, eluent: TSK eluent LP-1, 1 mL/min., sample volume: 100 μL; Tosoh) by monitoring colors produced by cholesterol.
Protein concentration: Each protein concentration was determined by measuring absorbance (OD280); or through the Lowry method in which each sample (which had been delipidized with ethanol-ether) was subjected to color reaction.
Protein analysis: Protein was analyzed by SDS-gel electrophoresis. Specifically, each sample was subjected to delipidizing treatment and solubilized with 1% SDS, followed by treatment with a buffer (2% SDS/10% glycerol/0.005% BPB/20% 2-mercaptoethanol), to thereby prepare a sample for electrophoresis. The resultant sample was electrophoresed in a 4-20% gradient gel in accordance with a conventional method.
In a manner similar to that described in Example 1 (3), reactivity of PS509 (synthesized in Example 2) with HDL was examined (as a test peptide, B-100FL or PS509 was employed, and the total cholesterol level of the applied HDL sample was 12.7 mg/dl).

The subject of assay [1] is anti-apo B-100 monoclonal antibody (JI-H). The experiment in a line: Reactivity with anti-apo B-100 monoclonal antibody (JI-H) by ELISA on peptide-coated plate. The class given is binding. The settings on record: OD450 vs immobilized peptide concentration (FIG. 1). An excerpt: (2) Reactivity with anti-apo b-100 Monoclonal Antibody (JI-H: J. Clin. Ligand Assay, 19 (3), 177 (1999))
The reactivity was confirmed through ELISA in accordance with a conventional method by using a plate coated with the peptide obtained above (B100FL) (see Japanese Patent Application Laid-Open (kokai) No. 4-104798).
(ELISA stands for enzyme-linked immunosorbent assay.)

Assay [2] has as its system quail arteriosclerosis model. The experiment in a line: Effect test by use of an arteriosclerosis model (high-cholesterol-fed quails, aortic arch histology). It counts as in vivo. The text has this: Cholesterol (Wako Pure Chemical Industries, Ltd.) and corn oil (Corn Germ Oil 100; Ajinomoto Co., Inc.) were incorporated into a commercially available feed (product of Natural Pet Foods, “Chicks and nestlings (Quail)”) so as to attain final concentrations of 2% and 15%, respectively, to thereby prepare a high-cholesterol feed.
Healthy quails were bred while being allowed to freely intake the high-cholesterol feed for eight weeks. From five weeks after the beginning of breeding, a solution of the test peptide (B-100FL) in saline (1.0 mg/mL) was administered to the brachial (wing) vein (200 μL; 200 μg/body) twice a week at the interval of two through three days. In a manner similar to that described above, only saline was administered to the quails of a control group.
After the quails had been bred for eight weeks, the head of each quail was cut for exsanguination, and an aorta sample was obtained. The aorta sample was immediately fixed in a fixing solution (10% formalin) for three days. Subsequently, a tissue specimen (a frozen section having a thickness of 4 μm) of the aortic arch (where arteriosclerosis foci are most likely to occur) was prepared. The tissue specimen was subjected to hematoxylin-and-eosin staining (routine staining), and to oil-red staining (fat staining), followed by examination under a microscope.

Where [3] appears, read: 200 μg/body i.v. twice a week from week 5 to 8, aortic arch section.

Consider DFEVAEKINA FRAKVHEL IE R [P21], for which the “cholesterol efflux effect from RAW264 cells” value (shortened to “cholesterol efflux effect”) in the assay on RAW264 cells is “not to exhibit the effect”.
Turning to EKINA FRAKVHEL IE R [PS508], in the assay with RAW264 cells, the “cholesterol efflux effect” value is listed as “not to exhibit the effect”.
Turning to “FERINDVLEH VKHFVINLIG DFEVAEKINA (FERINDVLEHVKHFVINLIGDFEVAEKINA) [PS509, Apo B-100 position 2,307–2,336]”, the “reduction of total cholesterol level of HDL” value in the assay with HDL cholesterol was “about 48 percentage points”. Also, the “cholesterol efflux effect” value in the assay on RAW264 cells is given as “strong cholesterol efflux effect”.
On to “LLDQLGTTIS FERIND (LLDQLGTTISFERIND) [PS507, Apo B-100 position 2,297–2,312]”, for which the “cholesterol efflux effect” value in the assay on RAW264 cells was “not to exhibit the effect”.
Consider “LLDQLGTTIS FERINDVLEH VKHF (LLDQLGTTISFERINDVLEHVKHF) [PS506, Apo B-100 position 2,297–2,320]”, for which, in the assay with RAW264 cells, the “cholesterol efflux effect” value is listed as “not to exhibit the effect”.
For the substance “LLDQLGTTIS FERINDVLEH VKHFVINLIG (LLDQLGTTISFERINDVLEHVKHFVINLIG) [PS505, Apo B-100 position 2,297–2,326]”, the “cholesterol efflux effect” value in the assay with RAW264 cells is given as “strong cholesterol efflux effect”.
As for “LLDQLGTTISFERINDVLEHVKHFVINLIGDFEVAEKINAFRAKVHEL IE R (LLDQLGTTISFERINDVLEHVKHFVINLIGDFEVAEKINAFRAKVHELIER) [P51, 51 amino acid residues, the 2,297th to the 2,347th amino acid residues of apo B-100]”, the “reduction of total cholesterol level of HDL” value in the assay on HDL cholesterol is “about 72 percentage points”. Further, the “peak attributed to cholesterol (HDL-C) in lipoprotein analysis” value in the assay with HDL cholesterol (FIG. 2, HDL sample treated with B100FL-bound gel) is on record as “does not include a peak”. In addition, the “total cholesterol level relative to HDL sample treated with the control gel” value in the assay on HDL cholesterol (HDL sample treated with B100FL-bound gel vs control gel) is given as “about 1/15”. In the assay with HDL cholesterol (HDL-cholesterol by lipoprotein analysis (HPLC) of fraction that did not bind to the B100FL gel), this substance had an HDL-C of 243.2 Area. In addition, in the assay with HDL cholesterol (conclusion from cholesterol, lipoprotein and SDS-gel analysis), the “interaction with cholesterol and cholesterol ester of HDL” value is “has an effect of effluxing cholesterol and cholesterol ester from apoprotein particles of HDL”. The “Cholesterol (total cholesterol level)” value in the assay on HDL cholesterol (fraction that did not bind to the B100FL gel, HDL sample containing 20 μg apo A-I, 30 min room temperature) was found to be 0.25 mg/dL. The “cholesterol efflux effect” value with RAW264 cells was “strong cholesterol efflux effect”. Also, in assay [1], the “reactivity with JI-H” value is listed as “specific reactivity”. In addition, the “lipid accumulation in the internal tunica” value in assay [2] (200 μg/body i.v. (wing vein) twice a week from week 5 to 8 of high-cholesterol feed, aortic arch section) is reported as “a small amount of lipid accumulation was observed”. Also, in assay [2] (setting [3]), the “morphological disorder of the vessel internal tunica” value is “no morphological disorder”; the “thickening of the internal tunica and lipid infiltration into the middle tunica” value is recorded as “absent”.
